Legend:
Assay in all cases: FACE gel glycosylation assay
Type in all cases: biochemical
CHSY1-CHPF2 complex = target: T1, CHSY1-CHPF2 complex (Homo sapiens, UniProt Q86X52); conditions: acceptor TAMRA-labelled Penta-CSF1 glycopeptide, co-donor UDP-GalNAc; Mn2+ and Mg2+, pH 6.5, 30 C
T1 construct: secreted luminal part of both chains (TM helix removed), HEK Freestyle 293-F; N-terminal SUMO, His6 cut with 3C; C-terminal Avi (CHSY1), 3C site and twin-Strep (CHPF2); heterodimer, expected 169 kDa; with Chondroitin sulfate glucuronyltransferase
T1 sequence (Q86X52 68-802): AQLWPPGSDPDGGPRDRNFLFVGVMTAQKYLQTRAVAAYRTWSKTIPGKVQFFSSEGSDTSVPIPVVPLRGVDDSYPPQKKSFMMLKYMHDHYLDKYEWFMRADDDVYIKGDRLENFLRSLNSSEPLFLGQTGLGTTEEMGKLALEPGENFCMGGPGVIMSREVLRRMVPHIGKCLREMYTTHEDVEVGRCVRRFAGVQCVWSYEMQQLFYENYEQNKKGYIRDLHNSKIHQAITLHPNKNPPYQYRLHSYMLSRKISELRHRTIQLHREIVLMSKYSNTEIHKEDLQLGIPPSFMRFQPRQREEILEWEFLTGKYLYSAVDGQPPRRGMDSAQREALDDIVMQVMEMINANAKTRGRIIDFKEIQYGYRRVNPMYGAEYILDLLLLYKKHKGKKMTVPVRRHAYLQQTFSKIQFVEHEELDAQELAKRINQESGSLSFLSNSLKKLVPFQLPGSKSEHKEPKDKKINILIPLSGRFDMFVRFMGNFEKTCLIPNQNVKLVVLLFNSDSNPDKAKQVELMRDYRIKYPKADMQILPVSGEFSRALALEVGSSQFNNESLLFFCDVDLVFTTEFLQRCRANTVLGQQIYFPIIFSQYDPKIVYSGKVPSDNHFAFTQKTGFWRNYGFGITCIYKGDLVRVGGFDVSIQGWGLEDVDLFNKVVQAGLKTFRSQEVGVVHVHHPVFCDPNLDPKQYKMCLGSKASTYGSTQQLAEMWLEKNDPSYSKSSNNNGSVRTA
T1 sequence (Q9P2E5 57-772 partner): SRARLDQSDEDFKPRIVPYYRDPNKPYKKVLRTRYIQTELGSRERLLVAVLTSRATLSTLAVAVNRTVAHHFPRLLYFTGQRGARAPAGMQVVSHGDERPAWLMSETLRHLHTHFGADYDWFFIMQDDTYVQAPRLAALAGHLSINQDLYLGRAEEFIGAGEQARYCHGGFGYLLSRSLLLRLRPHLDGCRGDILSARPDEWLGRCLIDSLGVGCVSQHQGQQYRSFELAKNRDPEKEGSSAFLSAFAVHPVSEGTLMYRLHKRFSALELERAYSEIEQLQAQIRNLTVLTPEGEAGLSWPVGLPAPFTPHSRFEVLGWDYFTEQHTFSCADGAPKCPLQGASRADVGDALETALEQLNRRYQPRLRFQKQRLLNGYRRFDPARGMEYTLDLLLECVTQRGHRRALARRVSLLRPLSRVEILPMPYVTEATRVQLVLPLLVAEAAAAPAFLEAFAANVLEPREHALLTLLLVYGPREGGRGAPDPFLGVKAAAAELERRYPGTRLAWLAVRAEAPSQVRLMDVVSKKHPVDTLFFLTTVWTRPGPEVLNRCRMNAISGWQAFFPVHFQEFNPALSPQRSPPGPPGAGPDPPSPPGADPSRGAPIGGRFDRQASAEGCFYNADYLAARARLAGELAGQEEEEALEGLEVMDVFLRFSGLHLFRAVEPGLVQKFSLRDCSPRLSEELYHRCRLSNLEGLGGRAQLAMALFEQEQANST

CHSY3-CHPF2 complex = target: T2, CHSY3-CHPF2 complex (Homo sapiens, UniProt Q70JA7); conditions: acceptor TAMRA-labelled Penta-CSF1 glycopeptide, co-donor UDP-GalNAc; Mn2+ and Mg2+, pH 6.5, 30 C
T2 construct: secreted luminal part of both chains (TM helix removed), HEK Freestyle 293-F; N-terminal SUMO, His6 cut with 3C; C-terminal Avi (CHSY3), 3C site and twin-Strep (CHPF2); heterodimer, expected 167 kDa; with Chondroitin sulfate glucuronyltransferase
T2 sequence (Q70JA7 157-882): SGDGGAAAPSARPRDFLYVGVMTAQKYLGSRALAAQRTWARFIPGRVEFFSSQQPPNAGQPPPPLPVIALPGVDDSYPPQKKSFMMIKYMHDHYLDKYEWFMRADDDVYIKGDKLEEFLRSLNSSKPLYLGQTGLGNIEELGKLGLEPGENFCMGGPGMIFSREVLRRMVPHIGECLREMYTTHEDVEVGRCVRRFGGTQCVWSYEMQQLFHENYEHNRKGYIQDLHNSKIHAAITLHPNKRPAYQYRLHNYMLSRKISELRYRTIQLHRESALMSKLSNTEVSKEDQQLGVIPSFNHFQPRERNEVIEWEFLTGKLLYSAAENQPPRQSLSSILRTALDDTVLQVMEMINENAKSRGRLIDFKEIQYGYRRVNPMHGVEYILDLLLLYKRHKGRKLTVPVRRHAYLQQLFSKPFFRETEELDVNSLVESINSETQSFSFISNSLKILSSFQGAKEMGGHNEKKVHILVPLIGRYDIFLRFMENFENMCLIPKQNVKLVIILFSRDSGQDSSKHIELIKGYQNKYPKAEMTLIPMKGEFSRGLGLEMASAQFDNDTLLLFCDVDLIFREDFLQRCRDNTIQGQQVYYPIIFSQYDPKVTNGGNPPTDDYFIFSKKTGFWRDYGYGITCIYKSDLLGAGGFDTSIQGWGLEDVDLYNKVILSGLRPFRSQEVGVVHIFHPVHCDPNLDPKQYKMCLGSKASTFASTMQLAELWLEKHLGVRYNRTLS
T2 sequence (Q9P2E5 57-772 partner): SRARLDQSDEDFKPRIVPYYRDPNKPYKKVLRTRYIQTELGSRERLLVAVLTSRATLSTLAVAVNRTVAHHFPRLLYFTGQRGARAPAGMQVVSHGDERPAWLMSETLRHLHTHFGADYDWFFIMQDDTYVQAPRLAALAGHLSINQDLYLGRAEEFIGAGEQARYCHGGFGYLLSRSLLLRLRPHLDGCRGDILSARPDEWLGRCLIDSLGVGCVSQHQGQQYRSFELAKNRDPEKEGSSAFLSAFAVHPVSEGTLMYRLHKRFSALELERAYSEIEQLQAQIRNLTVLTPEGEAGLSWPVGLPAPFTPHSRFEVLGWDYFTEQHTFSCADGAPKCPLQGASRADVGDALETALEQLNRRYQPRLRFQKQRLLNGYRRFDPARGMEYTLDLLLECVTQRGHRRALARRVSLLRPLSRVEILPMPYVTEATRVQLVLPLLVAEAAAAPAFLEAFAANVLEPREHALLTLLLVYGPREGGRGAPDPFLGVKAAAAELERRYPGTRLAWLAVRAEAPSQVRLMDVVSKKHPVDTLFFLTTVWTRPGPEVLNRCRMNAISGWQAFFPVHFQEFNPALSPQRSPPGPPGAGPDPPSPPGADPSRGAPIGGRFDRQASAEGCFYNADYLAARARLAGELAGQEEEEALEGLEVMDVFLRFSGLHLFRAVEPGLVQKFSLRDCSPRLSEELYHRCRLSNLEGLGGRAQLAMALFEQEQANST

CHSY1-CHPF complex = target: T3, CHSY1-CHPF complex (Homo sapiens, UniProt Q86X52); conditions: acceptor TAMRA-labelled Penta-CSF1 glycopeptide, co-donor UDP-GalNAc; Mn2+ and Mg2+, pH 6.5, 30 C
T3 construct: secreted luminal part of both chains (TM helix removed), HEK Freestyle 293-F; N-terminal SUMO, His6 cut with 3C; C-terminal Avi (CHSY1), 3C site and twin-Strep (CHPF); heterodimer, expected 167 kDa; with Chondroitin sulfate synthase 2
T3 sequence (Q86X52 68-802): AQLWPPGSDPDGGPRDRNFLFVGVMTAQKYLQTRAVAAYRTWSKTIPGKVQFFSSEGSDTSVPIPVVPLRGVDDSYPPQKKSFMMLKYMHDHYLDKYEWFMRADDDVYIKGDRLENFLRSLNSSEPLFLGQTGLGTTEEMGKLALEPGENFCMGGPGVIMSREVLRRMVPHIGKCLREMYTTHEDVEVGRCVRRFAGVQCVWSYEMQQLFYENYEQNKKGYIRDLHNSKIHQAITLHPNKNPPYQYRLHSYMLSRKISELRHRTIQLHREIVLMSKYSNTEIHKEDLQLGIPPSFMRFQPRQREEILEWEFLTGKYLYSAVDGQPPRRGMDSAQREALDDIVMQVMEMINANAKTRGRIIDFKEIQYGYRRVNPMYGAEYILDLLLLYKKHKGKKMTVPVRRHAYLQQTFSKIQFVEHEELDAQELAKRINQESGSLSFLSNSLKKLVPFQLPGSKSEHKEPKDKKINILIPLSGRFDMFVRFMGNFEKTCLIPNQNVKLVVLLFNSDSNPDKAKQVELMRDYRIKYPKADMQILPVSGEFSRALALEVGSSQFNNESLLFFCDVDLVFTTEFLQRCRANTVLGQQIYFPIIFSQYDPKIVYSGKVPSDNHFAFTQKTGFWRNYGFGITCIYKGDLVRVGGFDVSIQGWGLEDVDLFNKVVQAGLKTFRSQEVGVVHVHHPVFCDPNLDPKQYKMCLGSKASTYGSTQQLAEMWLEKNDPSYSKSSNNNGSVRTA
T3 sequence (Q8IZ52 81-775 partner): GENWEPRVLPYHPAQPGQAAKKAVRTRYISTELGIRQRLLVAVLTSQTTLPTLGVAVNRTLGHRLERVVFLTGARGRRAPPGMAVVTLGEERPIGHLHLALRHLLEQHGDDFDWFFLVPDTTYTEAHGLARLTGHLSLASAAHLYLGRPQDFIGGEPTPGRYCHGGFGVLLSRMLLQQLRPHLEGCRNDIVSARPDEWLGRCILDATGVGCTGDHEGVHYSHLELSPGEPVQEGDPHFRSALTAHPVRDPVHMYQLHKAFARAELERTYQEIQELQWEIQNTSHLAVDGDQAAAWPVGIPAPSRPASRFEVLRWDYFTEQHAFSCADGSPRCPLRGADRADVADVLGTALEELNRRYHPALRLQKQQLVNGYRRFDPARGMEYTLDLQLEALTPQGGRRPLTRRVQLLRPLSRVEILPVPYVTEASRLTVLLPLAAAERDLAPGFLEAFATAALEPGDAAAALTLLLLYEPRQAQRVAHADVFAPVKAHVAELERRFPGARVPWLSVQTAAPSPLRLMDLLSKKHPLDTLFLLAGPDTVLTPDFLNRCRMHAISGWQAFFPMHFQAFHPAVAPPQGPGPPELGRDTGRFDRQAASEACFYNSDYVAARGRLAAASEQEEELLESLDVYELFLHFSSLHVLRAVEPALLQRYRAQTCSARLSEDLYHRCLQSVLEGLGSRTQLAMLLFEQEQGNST

CHSY3-CHPF complex = target: T4, CHSY3-CHPF complex (Homo sapiens, UniProt Q70JA7); conditions: acceptor TAMRA-labelled Penta-CSF1 glycopeptide, co-donor UDP-GalNAc; Mn2+ and Mg2+, pH 6.5, 30 C; N-terminal GT31 site of CHSY3
T4 construct: secreted luminal part of both chains (TM helix removed), HEK Freestyle 293-F; N-terminal RPTP sigma signal, SUMO, His6 cut with 3C; C-terminal Avi (CHSY3), 3C site and twin-Strep (CHPF); heterodimer, expected 165 kDa; with Chondroitin sulfate synthase 2
T4 sequence (Q70JA7 157-882): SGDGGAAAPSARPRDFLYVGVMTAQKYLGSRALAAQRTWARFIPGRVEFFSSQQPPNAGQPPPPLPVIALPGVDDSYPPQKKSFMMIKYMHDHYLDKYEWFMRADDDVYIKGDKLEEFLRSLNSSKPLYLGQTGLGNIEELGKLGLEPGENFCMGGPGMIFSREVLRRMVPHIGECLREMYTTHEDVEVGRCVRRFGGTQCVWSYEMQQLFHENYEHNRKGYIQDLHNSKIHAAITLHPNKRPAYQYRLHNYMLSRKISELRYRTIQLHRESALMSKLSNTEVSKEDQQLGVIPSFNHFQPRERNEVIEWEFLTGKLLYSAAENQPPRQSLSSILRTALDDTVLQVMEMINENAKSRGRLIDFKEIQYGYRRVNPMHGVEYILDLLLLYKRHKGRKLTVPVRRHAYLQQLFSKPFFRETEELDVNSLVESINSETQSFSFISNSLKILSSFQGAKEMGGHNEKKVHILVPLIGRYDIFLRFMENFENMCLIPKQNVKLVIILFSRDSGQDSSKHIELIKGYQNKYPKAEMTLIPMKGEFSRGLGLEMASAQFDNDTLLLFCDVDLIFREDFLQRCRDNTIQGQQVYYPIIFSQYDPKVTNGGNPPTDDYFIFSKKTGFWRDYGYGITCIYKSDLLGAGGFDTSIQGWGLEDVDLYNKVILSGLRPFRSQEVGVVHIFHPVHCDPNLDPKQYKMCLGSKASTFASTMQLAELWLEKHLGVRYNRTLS
T4 sequence (Q8IZ52 81-775 partner): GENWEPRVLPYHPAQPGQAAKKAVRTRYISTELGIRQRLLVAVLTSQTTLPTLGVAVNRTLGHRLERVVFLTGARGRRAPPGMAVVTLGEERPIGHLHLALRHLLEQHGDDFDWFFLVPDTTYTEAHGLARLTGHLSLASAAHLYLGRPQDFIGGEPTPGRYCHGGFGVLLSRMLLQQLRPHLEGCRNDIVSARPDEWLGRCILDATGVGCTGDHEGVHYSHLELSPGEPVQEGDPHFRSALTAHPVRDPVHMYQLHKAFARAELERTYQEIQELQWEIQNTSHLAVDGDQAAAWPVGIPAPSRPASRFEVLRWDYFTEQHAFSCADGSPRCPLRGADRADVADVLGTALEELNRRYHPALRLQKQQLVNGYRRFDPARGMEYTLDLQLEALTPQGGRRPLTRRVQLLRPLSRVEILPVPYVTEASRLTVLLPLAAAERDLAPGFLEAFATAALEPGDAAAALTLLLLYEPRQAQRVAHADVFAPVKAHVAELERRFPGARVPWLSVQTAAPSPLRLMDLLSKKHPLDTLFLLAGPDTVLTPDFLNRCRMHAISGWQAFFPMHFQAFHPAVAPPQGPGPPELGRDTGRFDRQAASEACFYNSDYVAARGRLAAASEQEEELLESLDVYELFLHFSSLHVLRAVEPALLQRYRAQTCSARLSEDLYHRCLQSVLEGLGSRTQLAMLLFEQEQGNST

In the case of `O=C(O)[C@H]1O[C@H](OP(=O)(O)OP(=O)(O)OC[C@H]2O[C@@H](n3ccc(=O)[nH]c3=O)[C@H](O)[C@@H]2O)[C@H](O)[C@@H](O)[C@@H]1O` [UDP-GlcA], the “FACE gel glycosylation assay” value (CHSY1-CHPF2 complex) is reported as “All four purified CS polymerase complexes were able to elongate the CS chain”, the “FACE gel glycosylation assay” value (CHSY3-CHPF2 complex) is reported as “All four purified CS polymerase complexes were able to elongate the CS chain” and the “FACE gel glycosylation assay” value (CHSY1-CHPF complex) is reported as “All four purified CS polymerase complexes were able to elongate the CS chain”. The “FACE gel glycosylation assay” value (CHSY3-CHPF complex) was “wild-type CHSY3-CHPF complex efficiently elongated the Penta-CSF1 and Hexa-CSF1 substrates into high molecular weight chains”.

— paper PMC12748766, “Structural basis for human chondroitin sulfate chain polymerization” (Nature Communications, 2025)
